Experimental data reported in patent US10221178B2, “Purine inhibitors of human phosphatidylinositol 3-kinase delta” (MERCK SHARP & DOHME CORP., priority 2015, dated 2019).

Key:
PI3Kdelta = PI3Kdelta (Homo sapiens (Human), UniProt O00329); experiment: HTRF PI3K biochemical assay, delta isoform; settings: 0.3 nM enzyme, 100 uM ATP, 5 uM PIP2, form screened: Neutral
Summary of the method: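 0.3 nM PI3Kδ, pre-incubated 15 min at RT with compound (10-point 3-fold series), then reacted 1 h at RT with 100 uM ATP and 5 uM PIP2. After EDTA stop, PIP3 product detected by HTRF competition (GST-GRP1-PH, biotin-PIP3, Eu anti-GST, SA-APC), read 665/620 nm after 1 h.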

PI3Kalpha = PI3Kalpha (Homo sapiens (Human), UniProt P42336); experiment: HTRF PI3K biochemical assay, alpha isoform (selectivity versus PI3Kalpha); settings: relative ratio (PI3K-alpha IC50 value/PI3K-delta IC50 value); form screened: Neutral
Summary of the method: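 Uses recombinant PI3Kalpha at 0.5 nM with 100 uM ATP and 5 uM PIP2, after a 15 min RT compound pre-incubation and a 1 h RT reaction. PIP3 product displaces biotin-PIP3 from GST-GRP1 PH domain, read as HTRF 665/620 ratio. IC50 from a 10-point dose response, corrected via a PIP3 standard curve.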

Chain of PI3Kalpha (P42336 whole entry, the tested form may be a part, canonical isoform): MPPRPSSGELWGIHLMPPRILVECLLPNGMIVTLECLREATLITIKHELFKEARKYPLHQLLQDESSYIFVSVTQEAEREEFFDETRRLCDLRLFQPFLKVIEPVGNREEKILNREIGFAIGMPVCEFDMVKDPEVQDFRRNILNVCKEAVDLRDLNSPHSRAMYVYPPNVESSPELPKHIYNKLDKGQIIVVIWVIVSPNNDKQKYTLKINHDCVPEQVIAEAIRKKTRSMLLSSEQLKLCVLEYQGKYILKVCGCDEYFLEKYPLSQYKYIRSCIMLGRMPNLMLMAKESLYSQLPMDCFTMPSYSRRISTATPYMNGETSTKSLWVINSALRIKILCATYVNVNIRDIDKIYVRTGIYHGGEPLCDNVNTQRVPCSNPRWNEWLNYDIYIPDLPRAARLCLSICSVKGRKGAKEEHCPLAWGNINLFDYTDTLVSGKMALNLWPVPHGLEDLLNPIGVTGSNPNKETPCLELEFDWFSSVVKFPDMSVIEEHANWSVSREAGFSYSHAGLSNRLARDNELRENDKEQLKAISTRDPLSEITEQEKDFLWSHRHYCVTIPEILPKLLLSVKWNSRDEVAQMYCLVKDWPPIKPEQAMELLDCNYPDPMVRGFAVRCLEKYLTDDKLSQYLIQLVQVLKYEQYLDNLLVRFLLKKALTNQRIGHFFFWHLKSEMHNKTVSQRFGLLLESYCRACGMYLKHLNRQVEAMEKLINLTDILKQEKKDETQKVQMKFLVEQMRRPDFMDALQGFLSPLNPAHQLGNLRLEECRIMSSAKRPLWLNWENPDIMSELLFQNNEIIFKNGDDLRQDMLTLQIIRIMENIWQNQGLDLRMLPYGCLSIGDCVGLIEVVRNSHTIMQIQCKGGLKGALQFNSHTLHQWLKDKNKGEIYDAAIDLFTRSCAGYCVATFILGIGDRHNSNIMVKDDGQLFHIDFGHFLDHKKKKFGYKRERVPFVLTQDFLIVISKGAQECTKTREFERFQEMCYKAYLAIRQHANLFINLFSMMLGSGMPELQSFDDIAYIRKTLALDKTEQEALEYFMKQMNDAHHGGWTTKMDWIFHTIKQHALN
Chain of PI3Kalpha (P27986 whole entry partner, the tested form may be a part, canonical isoform): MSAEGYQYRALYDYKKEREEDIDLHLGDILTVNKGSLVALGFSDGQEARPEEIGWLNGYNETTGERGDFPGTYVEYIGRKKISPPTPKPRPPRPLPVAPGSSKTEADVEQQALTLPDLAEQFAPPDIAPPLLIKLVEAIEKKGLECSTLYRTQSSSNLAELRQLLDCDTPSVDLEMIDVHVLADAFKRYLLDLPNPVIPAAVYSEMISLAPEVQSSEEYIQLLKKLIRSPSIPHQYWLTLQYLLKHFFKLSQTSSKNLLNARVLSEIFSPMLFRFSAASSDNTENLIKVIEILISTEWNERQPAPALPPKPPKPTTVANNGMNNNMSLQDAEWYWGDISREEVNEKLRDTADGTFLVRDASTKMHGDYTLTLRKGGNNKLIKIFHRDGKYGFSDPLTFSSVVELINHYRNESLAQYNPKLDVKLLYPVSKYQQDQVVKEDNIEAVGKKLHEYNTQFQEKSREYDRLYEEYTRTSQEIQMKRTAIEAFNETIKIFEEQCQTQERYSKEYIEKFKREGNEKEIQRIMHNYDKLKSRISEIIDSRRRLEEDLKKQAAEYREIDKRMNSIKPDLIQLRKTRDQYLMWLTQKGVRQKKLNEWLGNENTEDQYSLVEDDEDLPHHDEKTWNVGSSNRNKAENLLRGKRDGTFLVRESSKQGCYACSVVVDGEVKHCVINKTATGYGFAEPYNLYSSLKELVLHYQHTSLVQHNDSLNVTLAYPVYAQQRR
Chain of PI3Kdelta (O00329 whole entry, canonical isoform): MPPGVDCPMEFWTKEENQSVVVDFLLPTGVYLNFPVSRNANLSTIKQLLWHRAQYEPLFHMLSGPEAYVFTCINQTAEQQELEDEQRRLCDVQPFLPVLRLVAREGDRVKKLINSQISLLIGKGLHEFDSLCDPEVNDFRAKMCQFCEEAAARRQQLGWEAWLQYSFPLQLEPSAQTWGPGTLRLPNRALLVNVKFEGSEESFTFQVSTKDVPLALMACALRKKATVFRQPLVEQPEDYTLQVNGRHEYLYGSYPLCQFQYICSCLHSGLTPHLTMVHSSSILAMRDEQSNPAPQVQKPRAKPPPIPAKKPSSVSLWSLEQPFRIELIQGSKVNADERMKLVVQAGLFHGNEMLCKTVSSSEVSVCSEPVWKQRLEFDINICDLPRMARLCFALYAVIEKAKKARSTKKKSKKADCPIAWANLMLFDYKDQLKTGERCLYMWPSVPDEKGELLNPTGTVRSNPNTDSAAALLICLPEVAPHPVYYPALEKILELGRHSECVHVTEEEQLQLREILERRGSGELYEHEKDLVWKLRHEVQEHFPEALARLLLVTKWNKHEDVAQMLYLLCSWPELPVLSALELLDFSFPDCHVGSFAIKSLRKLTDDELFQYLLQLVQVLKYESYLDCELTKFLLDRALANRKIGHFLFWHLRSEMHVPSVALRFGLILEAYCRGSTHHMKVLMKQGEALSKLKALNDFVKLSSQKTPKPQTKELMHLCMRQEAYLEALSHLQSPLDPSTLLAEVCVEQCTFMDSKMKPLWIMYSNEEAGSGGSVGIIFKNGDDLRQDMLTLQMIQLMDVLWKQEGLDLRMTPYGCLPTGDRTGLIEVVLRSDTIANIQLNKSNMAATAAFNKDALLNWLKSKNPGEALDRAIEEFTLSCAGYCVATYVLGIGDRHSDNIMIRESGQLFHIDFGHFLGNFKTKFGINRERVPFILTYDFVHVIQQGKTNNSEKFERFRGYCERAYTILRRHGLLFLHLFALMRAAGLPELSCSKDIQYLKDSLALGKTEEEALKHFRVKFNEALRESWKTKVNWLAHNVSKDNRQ
Chain of PI3Kdelta (P27986 whole entry partner, canonical isoform): as the sequence (P27986 whole entry partner, the tested form may be a part, canonical isoform) above

IC50 (PI3Kdelta) | Selectivity versus PI3Kalpha (PI3Kalpha) | Structure (SMILES)
5.3 nM | >10 | CCn1c(-c2cnc(C)nc2)nc2c(N[C@H](C(=O)N3C[C@@H](C)O[C@@H](C)C3)C(C)(C)C)ncnc21 [Compound 2-42, N-[(1S)-1-{[(cis)-2,6-dimethylmorpholin-4-yl]carbonyl}-2,2-dimethylpropyl]-9-ethyl-8-(2-methylpyrimidin-5-yl)-9H-purin-6-amine]
87 nM | >10 | CCn1c(-c2cnc(C)nc2)nc2c(N[C@H](C(=O)N3C[C@@H](C)O[C@@H](C)C3)c3ccccc3)ncnc21 [Compound 2-43, N-{(1S)-2-[(cis)-2,6-dimethylmorpholin-4-yl]-2-oxo-1-phenylethyl}-9-ethyl-8-(2-methylpyrimidin-5-yl)-9H-purin-6-amine]
140 nM | >10 | CCn1c(-c2cnc(C)nc2)nc2c(N[C@@H](CC(C)C)C(=O)N3C[C@@H](C)O[C@@H](C)C3)ncnc21 [Compound 2-44, N-[(1S)-1-{[(cis)-2,6-dimethylmorpholin-4-yl]carbonyl}-3-methylbutyl]-9-ethyl-8-(2-methylpyrimidin-5-yl)-9H-purin-6-amine]
26 nM | >10 | CCC[C@H](Nc1ncnc2c1nc(-c1cnc(C)nc1)n2CC)C(=O)N1C[C@@H](C)O[C@@H](C)C1 [Compound 2-45, N-[(1S)-1-{[(cis)-2,6-dimethylmorpholin-4-yl]carbonyl}butyl]-9-ethyl-8-(2-methylpyrimidin-5-yl)-9H-purin-6-amine]
27 nM | >10 | CCn1c(-c2cnc(C)nc2)nc2c(N[C@@H](COC)C(=O)N3C[C@@H](C)O[C@@H](C)C3)ncnc21 [Compound 2-46, N-[(1S)-2-[(cis)-2,6-dimethylmorpholin-4-yl]-1-(methoxymethyl)-2-oxoethyl]-9-ethyl-8-(2-methylpyrimidin-5-yl)-9H-purin-6-amine]
12 nM | >10 | CCn1c(-c2cnc(C)nc2)nc2c(N[C@@H](CO)C(=O)N3C[C@@H](C)O[C@@H](C)C3)ncnc21 [Compound 2-47, (2S)-3-[(cis)-2,6-dimethylmorpholin-4-yl]-2-{[9-ethyl-8-(2-methylpyrimidin-5-yl)-9H-purin-6-yl]amino}-3-oxopropan-1-ol]
55 nM | >10 | CCn1c(-c2cnc(C)nc2)nc2c(N[C@H](C(=O)N3C[C@@H](C)O[C@@H](C)C3)C3CCCC3)ncnc21 [Compound 2-48, N-{(1S)-1-cyclopentyl-2-[(cis)-2,6-dimethylmorpholin-4-yl]-2-oxoethyl}-9-ethyl-8-(2-methylpyrimidin-5-yl)-9H-purin-6-amine]
4.1 nM | >10 | CCn1c(-c2cnc(C)nc2)nc2c(N[C@H](C(=O)N3C[C@@H](C)O[C@@H](C)C3)C(C)C)ncnc21 [Compound 2-49, N-[(1S)-1-{[(cis)-2,6-dimethylmorpholin-4-yl]carbonyl}-2-methylpropyl]-9-ethyl-8-(2-methylpyrimidin-5-yl)-9H-purin-6-amine]
8.7 nM | >10 | CCn1c(-c2cnc(C)nc2)nc2c(N[C@H](C(=O)N3C[C@@H](C)O[C@@H](C)C3)C(C)(C)O)ncnc21 [Compound 2-50, (3S)-4-[(cis)-2,6-dimethylmorpholin-4-yl]-3-{[9-ethyl-8-(2-methylpyrimidin-5-yl)-9H-purin-6-yl]amino}-2-methyl-4-oxobutan-2-ol]
420 nM | >10 | CCn1c(-c2cnc(C)nc2)nc2c(N[C@@H](CN(C)C)C(=O)N3C[C@@H](C)O[C@@H](C)C3)ncnc21 [Compound 2-51, (2S)-3-[(cis)-2,6-dimethylmorpholin-4-yl]-N-2-[9-ethyl-8-(2-methylpyrimidin-5-yl)-9H-purin-6-yl]-N-1-,N-1-dimethyl-3-oxopropane-1,2-diamine]
3.7 nM | >10 | CCn1c(-c2cnc(C)nc2)nc2c(N[C@H](C(=O)N3C[C@@H](C)O[C@@H](C)C3)[C@@H](C)OC)ncnc21 [Compound 2-52, N-[(1S,2R)-1-{[(cis)-2,6-dimethylmorpholin-4-yl]carbonyl}-2-methoxypropyl]-9-ethyl-8-(2-methylpyrimidin-5-yl)-9H-purin-6-amine]
37 nM | >10 | CCn1c(-c2cnc(C)nc2)nc2c(N[C@@H](C)CC(=O)N3C[C@@H](C)O[C@@H](C)C3)ncnc21 [Compound 2-53, N-{(1S)-3-[(cis)-2,6-dimethylmorpholin-4-yl]-1-methyl-3-oxopropyl}-9-ethyl-8-(2-methylpyrimidin-5-yl)-9H-purin-6-amine]
250 nM | >10 | CCn1c(-c2cnc(C)nc2)nc2c(NC[C@H](C)C(=O)N3C[C@@H](C)O[C@@H](C)C3)ncnc21 [Compound 2-54, N-{(2S)-3-[(cis)-2,6-dimethylmorpholin-4-yl]-2-methyl-3-oxopropyl}-9-ethyl-8-(2-methylpyrimidin-5-yl)-9H-purin-6-amine]
20 nM | >10 | CCn1c(-c2cnc(C)nc2)nc2c(NC[C@@H](C)C(=O)N3C[C@@H](C)O[C@@H](C)C3)ncnc21 [Compound 2-55, N-{(2R)-3-[(cis)-2,6-dimethylmorpholin-4-yl]-2-methyl-3-oxopropyl}-9-ethyl-8-(2-methylpyrimidin-5-yl)-9H-purin-6-amine]
610 nM | >10 | CCn1c(-c2cnc(C)nc2)nc2c(N[C@H](CC(=O)N3C[C@@H](C)O[C@@H](C)C3)c3ccccc3)ncnc21 [Compound 2-56, N-{(1R)-3-[(cis)-2,6-dimethylmorpholin-4-yl]-3-oxo-1-phenylpropyl}-9-ethyl-8-(2-methylpyrimidin-5-yl)-9H-purin-6-amine]
24 nM | >10 | CCn1c(-c2cnc(C)nc2)nc2c(NCC3(C(=O)N4C[C@@H](C)O[C@@H](C)C4)CC3)ncnc21 [Compound 2-57, N-[(1-{[(cis)-2,6-dimethylmorpholin-4-yl]carbonyl}cyclopropyl)methyl]-9-ethyl-8-(2-methylpyrimidin-5-yl)-9H-purin-6-amine]
290 nM | >10 | CCn1c(-c2cnc(C)nc2)nc2c(N[C@H](CC(=O)N3C[C@@H](C)O[C@@H](C)C3)C(C)C)ncnc21 [Compound 2-58, N-[(1R)-3-[(cis)-2,6-dimethylmorpholin-4-yl]-1-(1-methylethyl)-3-oxopropyl]-9-ethyl-8-(2-methylpyrimidin-5-yl)-9H-purin-6-amine]
63 nM | >10 | CCn1c(-c2cnc(C)nc2)nc2c(N[C@@H](C)CC(=O)N3CCCC3)ncnc21 [Compound 2-59, 9-ethyl-N-[(1S)-1-methyl-3-oxo-3-pyrrolidin-1-ylpropyl]-8-(2-methylpyrimidin-5-yl)-9H-purin-6-amine]
29 nM | >10 | CCn1c(-c2cnc(C)nc2)nc2c(NC[C@@H](C)C(=O)N3CCCC3)ncnc21 [Compound 2-60, 9-ethyl-N-[(2R)-2-methyl-3-oxo-3-pyrrolidin-1-ylpropyl]-8-(2-methylpyrimidin-5-yl)-9H-purin-6-amine]
93 nM | >10 | CCn1c(-c2cnc(C)nc2)nc2c(NCC3(C(=O)N4CCCC4)CC3)ncnc21 [Compound 2-61, 9-ethyl-8-(2-methylpyrimidin-5-yl)-N-{[1-(pyrrolidin-1-ylcarbonyl)cyclopropyl]methyl}-9H-purin-6-amine]
100 nM | >10 | CCn1c(-c2cnc(C)nc2)nc2c(N[C@H](CC(=O)N3CCCC3)C(C)C)ncnc21 [Compound 2-62, 9-ethyl-N-[(1R)-1-(1-methylethyl)-3-oxo-3-pyrrolidin-1-ylpropyl]-8-(2-methylpyrimidin-5-yl)-9H-purin-6-amine]
17 nM | >10 | CC[C@H](Nc1ccnc2c1nc(-c1cnc(C)nc1)n2CC)C(=O)N1C[C@@H](C)O[C@@H](C)C1 [Compound 3-1, N-[(1S)-1-{[(cis)-2,6-dimethylmorpholin-4-yl]carbonyl}propyl]-3-ethyl-2-(2-methylpyrimidin-5-yl)-3H-imidazo[4,5-b]pyridin-7-amine]
6.2 nM | >10 | CC[C@H](Nc1ccnc2c1nc(-c1ccc(C(F)(F)F)nc1)n2CC)C(=O)N1C[C@@H](C)O[C@@H](C)C1 [Compound 3-2, N-[(1S)-1-{[(cis)-2,6-dimethylmorpholin-4-yl]carbonyl}propyl]-3-ethyl-2-[6-(trifluoromethyl)pyridin-3-yl]-3H-imidazo[4,5-b]pyridin-7-amine]
8.6 nM | >10 | CCn1c(-c2cnc(C)nc2)nc2c(N[C@H](C(=O)N3C[C@@H](C)O[C@@H](C)C3)[C@@H](C)OC)ccnc21 [Compound 3-3, N-[(1S,2R)-1-{[(cis)-2,6-dimethylmorpholin-4-yl]carbonyl}-2-methoxypropyl]-3-ethyl-2-(2-methylpyrimidin-5-yl)-3H-imidazo[4,5-b]pyridin-7-amine]
21 nM | >10 | CC[C@H](Nc1ncnc2c1nc(-c1cnc(C)nc1)n2CC)C(=O)N1C[C@@H](C)N(C(C)=O)[C@@H](C)C1 [Compound 4-2, N-[(1S)-1-{[cis-4-acetyl-3,5-dimethylpiperazin-1-yl]carbonyl}propyl]-9-ethyl-8-(2-methylpyrimidin-5-yl)-9H-purin-6-amine]
